Measured values reported in paper PMC4148167 (Journal of Medicinal Chemistry, 2014).
In brackets after ≈: the same amount, converted by molar mass.

Key:
305 kinases = assay: Carna Biosciences kinome profile at 100 nM; format: biochemical; details: in duplicate
A549 NSCLC cells = assay: soft agar colony formation, A549; format: cell-based; details: 2 weeks, negative control 20 at 300 nM
Molm-14 AML cells = assay: soft agar colony formation, Molm-14; format: cell-based; details: 2 weeks, negative control 20 at 50 nM
Mer = biological target: T1, Mer (Homo sapiens, UniProt Q12866); assay: pharmacodynamic study: Mer phosphorylation in bone marrow leukemia cells in vivo; set-up: species or system NOD/SCID/gamma mice with 697 human leukemia xenografts; details: single 3 mg/kg oral dose, 30 min after dosing
T1 sequence (Q12866 21-999): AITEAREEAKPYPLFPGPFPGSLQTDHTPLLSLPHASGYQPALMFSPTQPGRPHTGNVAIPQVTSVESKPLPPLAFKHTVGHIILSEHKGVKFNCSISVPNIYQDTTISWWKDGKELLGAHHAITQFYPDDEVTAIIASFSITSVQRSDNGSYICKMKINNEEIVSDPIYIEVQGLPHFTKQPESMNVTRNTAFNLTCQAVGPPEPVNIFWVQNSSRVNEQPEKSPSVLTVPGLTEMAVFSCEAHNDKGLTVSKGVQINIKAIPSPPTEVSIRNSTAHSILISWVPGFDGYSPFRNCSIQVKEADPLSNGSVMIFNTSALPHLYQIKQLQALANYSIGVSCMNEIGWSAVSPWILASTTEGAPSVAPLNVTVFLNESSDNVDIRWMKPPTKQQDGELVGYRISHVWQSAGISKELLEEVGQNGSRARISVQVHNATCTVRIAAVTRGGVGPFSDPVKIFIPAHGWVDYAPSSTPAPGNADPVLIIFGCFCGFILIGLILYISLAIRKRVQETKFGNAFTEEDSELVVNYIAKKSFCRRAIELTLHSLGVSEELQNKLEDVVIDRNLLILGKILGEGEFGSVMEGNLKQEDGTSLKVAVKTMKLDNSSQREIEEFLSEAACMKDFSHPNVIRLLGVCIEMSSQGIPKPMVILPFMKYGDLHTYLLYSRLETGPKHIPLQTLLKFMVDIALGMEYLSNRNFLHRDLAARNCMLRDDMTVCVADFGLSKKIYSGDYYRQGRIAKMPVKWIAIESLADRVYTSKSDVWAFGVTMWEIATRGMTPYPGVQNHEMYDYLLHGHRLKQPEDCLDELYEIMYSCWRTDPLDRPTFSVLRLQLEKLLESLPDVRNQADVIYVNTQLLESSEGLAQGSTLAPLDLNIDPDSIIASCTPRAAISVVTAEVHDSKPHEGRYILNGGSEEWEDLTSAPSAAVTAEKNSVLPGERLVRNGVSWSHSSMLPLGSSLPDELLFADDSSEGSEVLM

kinetic solubility = format: physicochemical; details: normal saline, pH 7.4

Structure (SMILES)	number of kinases inhibited by more than 50% (305 kinases)	effect on colony formation in soft agar, A549 NSCLC (A549 NSCLC cells)	effect on colony formation in soft agar, Molm-14 AML (Molm-14 AML cells)	decrease of Mer phospho-protein levels in bone marrow leukemia cells (Mer)	solubility kinetic (kinetic solubility)
CCCCNc1ncc2c(-c3ccc(CN4CCN(C)CC4)cc3)cn([C@H]3CC[C@H](O)CC3)c2n1 [Compound 11]	Sixty-six	significant inhibition of colony formation	significant inhibition of colony formation	greater than 90%	38 µg/mL (≈ 79.7 µM)
CCCCN(C)c1ncc2c(-c3ccc(CN4CCN(C)CC4)cc3)cn([C@H]3CC[C@H](O)CC3)c2n1 [Compound 20]		no significant effect	no significant effect		
